The text below walks through data of patent US20040143007A1, “Malononitrile compounds and their use as pesticides” (priority 2001, published 2004).

Holding throughout (type): in vivo
In assay [1] the test system is Culex pipiens pallens (common mosquito). Description: Pesticidal test against Culex pipiens pallens, larvae in treated water (Test Example 7). As to conditions: 24 h, 0.7 ml of 500 ppm test liquid in 100 ml water (active ingredient 3.5 ppm), twenty final-instar larvae, after 1 days.
Experimental: In 100 ml of ion-exchanged water, the test liquid had been prepared as described above, was added dropwise in an amount of 0.7 ml (the concentration of active ingredient was 3.5 ppm). Twenty final-instar larvae of Culex pipiens pallens (common mosquito) were set free in the solution. After 1 days, their survival was examined to determine the mortality.
Assay [2] deals with Diabrotica undecimpunctata (southern corn rootworm). Description: Pesticidal test against Diabrotica undecimpunctata, filter paper with corn seed and eggs (Test Example 4). As to conditions: active ingredient 50 ppm, 1 ml on filter paper, 30 to 50 eggs, 25° C. As to the method:
One germinated seed of corn and 30 to 50 eggs of Diabrotica undecimpunctata (southern corn rootworm) was placed on the filter paper in the polyethylene cup, which was then kept covered and left in a room at 25° C. On the 6th day after, the number of surviving larvae of Diabrotica undecimpunctata was examined.

Assay [3] deals with Blattalla germanica (German cockroach). The experiment in a line: Pesticidal test against Blattalla germanica, treated filter paper with sucrose bait (Test Example 6). Conditions: Blattella germanica, 144 h; active ingredient 500 ppm, 0.7 ml on filter paper; two male adults; after 6 days. The source says: Two male adults of Blattalla germanica (German cockroach) were set free in the polyethylene cup, which was then kept covered. After 6 days, their survival was examined to determine the mortality.

Assay [4] relates to Musca domestics (house fly). Description: Pesticidal test against Musca domestics, treated filter paper with sucrose bait (Test Example 5). As to conditions: active ingredient 500 ppm, 0.7 ml on filter paper, ten female adults, after 24 hours. The protocol:
Ten female adults of Musca domestics (house fly) were set free in the polyethylene cup, which was then kept covered. After 24 hours, their survival was examined to determine the mortality.

In assay [1], `N#CC(C#N)(Cc1ccc(Cl)cc1)CC1CC1` [Compound 1, 2-(4-chlorobenzyl)-2-(cyclopropylmethyl)malononitrile] gave a mortality at 3.5 µg/mL of 100%. Also, in assay [2], the “number of surviving pests on the 6th day after” value is given as 0. The compound further displayed a mortality at 500 ppm in assay [3] of 100%.

In the case of `N#CC(C#N)(Cc1ccc(OC(F)(F)F)cc1)CC1CC1` [Compound 2, 2-(cyclopropylmethyl)-2-(4-(trifluoromethoxy)benzyl)malononitrile], the mortality at 500 ppm in assay [4] and in assay [3] was 100% each time. In assay [1], this compound gave a mortality at 3.5 µg/mL of 100%. Besides, the “number of surviving pests on the 6th day after” value in assay [2] is 0.

`N#CC(C#N)(Cc1ccc(OC(F)(F)F)cc1)CC1CCC1` [Compound 3, 2-(cyclobutylmethyl)-2-(4-(trifluoromethoxy)benzyl)malononitrile] registered a mortality at 500 ppm in assay [4] of 100%. The mortality at 3.5 µg/mL in assay [1] came out at 100%.

As for `N#CC(C#N)(Cc1ccc(SC(F)(F)F)cc1)CC1CCC1` [Compound 4, 2-(cyclobutylmethyl)-2-(4-(trifluoromethylthio)benzyl)malononitrile], the mortality at 500 ppm in assay [4] and in assay [3] was 100% in each case. In assay [1], this compound had a mortality at 3.5 µg/mL of 100%.

As to `N#CC(C#N)(Cc1ccc(OC(F)(F)F)cc1)CC1CC1(Cl)Cl` (stereo not drawn) [Compound 5, 2-((2,2-dichlorocyclopropyl)methyl)-2-(4-(trifluoromethoxy)benzyl)malononitrile], in assay [4], the mortality at 500 ppm turned out to be 100%. The mortality at 3.5 µg/mL in assay [1] was determined as 100%.

As to `N#CC(C#N)(Cc1ccc(C(F)(F)F)cc1)CC1CC1` [Compound 6, 2-(cyclopropylmethyl)-2-(4-(trifluoromethyl)benzyl)malononitrile], the mortality at 500 ppm in assay [4] and in assay [3] was 100% throughout. The compound further displayed a mortality at 3.5 µg/mL in assay [1] of 100%.

For `N#CC(C#N)(Cc1ccc(C(F)(F)F)cc1)CC1CCC1` [Compound 7, 2-(cyclobutylmethyl)-2-(4-(trifluoromethyl)benzyl)malononitrile], the mortality at 500 ppm in assay [4] and in assay [3] was 100% throughout. For the same compound, the mortality at 3.5 µg/mL in assay [1] came to 100%.

With `N#Cc1ccc(CC(C#N)(C#N)CC2CC2(Cl)Cl)cc1` (stereo not drawn) [Compound 9, 2-(4-cyanobenzyl)-2-((2,2-dichlorocyclopropyl)methyl)malononitrile], the mortality at 3.5 µg/mL in assay [1] turned out to be 100%.

Regarding `N#CC(C#N)(Cc1ccc(C(F)(F)F)cc1)CC1CC1(Cl)Cl` (stereo not drawn) [Compound 10, 2-((2,2-dichlorocyclopropyl)methyl)-2-(4-(trifluoromethyl)benzyl)malononitrile], the mortality at 500 ppm in assay [4] and in assay [3] was 100% in each case. The compound also displayed a mortality at 3.5 µg/mL in assay [1] of 100%.
